pIC50: −log10 of the molar value. Where two headings read alike, the source gives them in different places.
Columns and labels:
[1] = 50-150 mg/day for 10 days, cancer patients
Procedure: (§1) Whit this goal, hydralazine was administered to groups of 4 patients each group at doses of: 1) 50 mg/day, 2) 75 mg/day, 3) 100 mg/day and 4) 150 mg/day for 10 days. Biopsies and peripheral blood samples were taken before commencing treatment and at day 11. The state of pre- and post-treatment methylation was analyzed for the promoters of the following genes: APC, MGMT; ER, GSTP1, DAPK, RARβ, FHIT and p16 as well as the state of expression of their messengers by RT-PCR. Also the state of methylation of the gene subject to parental unactivation H19, and a genomic clone which normally is found methylated was evaluated, as well as the global content of methylated citokines in the genome. The toxicity to hydralazine was evaluated using the escale from the U.S. National Cancer Institute (CTC NCI). […] FIG. 3A.

[2] = tested on: expression of suppressive genes (APC, MGMT, ER, GSTP1, DAPK, RARβ, FHIT, p16)
Procedure: as §1

[3] = tested on: promoters of APC, MGMT, ER, GSTP1, DAPK, RARβ, FHIT and p16; conditions: post-treatment biopsies
Procedure: as §1

[4] = tested on: HeLa cells; experiment: MTT cell viability assay, chemotherapeutic agent plus composition; type: cell-based; conditions: for viability reduction: chemotherapeutic agent plus hydralazine 10 μM and magnesium valproate 1 mM, viability on day 4
Procedure: With this objective, three drugs were selected that are representative of his class: alkylating agents as cisplatin, antibiotic as doxorrubicin, antimetabolite as gemcitabine. The cells were plated in 96-well plates (Falcon Becton Dickinson, Franklin Lakes, N.J.) at a density of 1.5-2.5×10^3 cells/well in 0.1 ml of complete media. The following day the cells were treated with the chemotherapeutic agent at the concentration indicated in FIGS. 2A, 2B y 2C plus hydralazine at 10 μM and valproic acid or magnesium valproate at 1 mM. On the next day, the media containing the drugs was removed and fresh hydralazine and magnesium valproate were added at same concentration for another additional 48 hours. On the following day (day 4) cell viability was measured using an MTT assay. Briefly, 50 μl of MTT reagent in phosphate buffered solution were added to each well. […] Thereafter it is read spectrophotometrically on a ELISA reader. All the assays were carried out in triplicate. The cytotoxic effect of each treatment was expressed in the percentage of cell viability relative to the untreated control (% control) which is defined as [(A570nm treated cells)/A570nm untreated cells)]×100.

[5] = tested on: Histone H3 and histone H4; experiment: Clinical study of magnesium valproate: histone hyperacetylation in tumor by Western blot; type: in vivo, human; conditions: of 12 patients, after treatment
Procedure: (§2) Twelve patients with this cancer of recent diagnosis and without previous treatment received the following doses of magnesium valproate in groups of 4 patients. Group 1, 20 mg/Kg, Group 2, 30 mg/kg, Group 3, 40 mg/Kg. A biopsy of the tumor and a blood sample were taken before the treatment and on the following day (day 6) since valproic acid or a salt thereof such as magnesium valproate was administered for 5 days in divided doses every 8 hours. The hyperacetylation of Histone H3 was analyzed in the samples and histone H4 in the tumor by Western blot, as well as the activity of histone deacetylases in nuclear extracts of the tumor using a calorimetric essay, as well as the levels of valproic acid in serum. The level of expression of the genes p21 and CAR was also analyzed in the pos-treatment biopsies. The toxicity of the treatment was recorded at the end of the cycle.

[6] = tested on: histone deacetylases; experiment: Clinical study of magnesium valproate: histone deacetylase activity in nuclear extracts of the tumor; type: in vivo, human
Procedure: as §2

[7] = Clinical study of magnesium valproate: toxicity; type: in vivo, human; conditions: 20, 30, 40 mg/Kg for 5 days
Procedure: as §2

[8] = tested on: p21; experiment: Clinical study of magnesium valproate: gene expression in post-treatment biopsies; type: in vivo, human; conditions: FIG. 8
Procedure: as §2

[9] = tested on: sarcoma HT1080 cellular line tumors; experiment: HT1080 sarcoma model in immunodeficient mice; type: in vivo, athymic mice
Procedure: Once the capacity of hydralazine and valproic acid or a salt thereof such as magnesium valproate to alter the expression génica in the patients' tumors was assessed, we investigate if the composition of these transcriptome modifying agents increased the antitumoral effect of the chemotherapy in a model of sarcoma in immunodeficient mice. With this goal, groups of 6 female athymic mice were studied, which were injected with 6 million cells of the sarcoma HT1080 cellular line. Once the tumors were formed, the animals were treated systemically with hydralazine and valproic acid or a salt thereof such as magnesium valproate with doses equivalent to those used in the patients. The groups of treatment were as follows: 1) control treated with saline solution, 2) treated weekly with adriamycin, 3) treated with the composition of hydralazine and valproato for 7 days followed by the same weekly treatment with adriamycin. […] This phenomenon occurs commonly in the treatment of the cancer in the patients, where often an entire or almost entire antitumoral response is observed to relapse later. The composition of the present invention therefore might induce extended or complete remissions of the tumors.

NNc1nncc2ccccc12 [hydralazine, 1-hydrazinophthalazine]
tolerability [1]: well tolerated
undesirable effects registered [1]: nausea, sickness, fatigue, headache and palpitations
effect on genic expression in patients with cancer ([2]; dose between 50 and 150 mg): effective to alter the genic expression
cases demethylated post-treatment that re-expressed the gene ([2]; of the 12 informative cases): 9 cases
percentage of demethylation ([3]; hydralazine 50 mg/day for 10 days): 40%
percentage of demethylation ([3]; hydralazine 75 mg/day for 10 days): 52%
percentage of demethylation ([3]; hydralazine 100 mg/day for 10 days): 43%
percentage of demethylation ([3]; hydralazine 150 mg/day for 10 days): 32%
frequency of demethylation, p16 ([3]; 2 out of 3): 67%
frequency of demethylation, MGMT ([3]; 2 out of 13 samples): 15%

N.N.[Cl][Pt][Cl] [cisplatin]
viability reduction [4]: 37%
pIC50 ([4]; read-out: inhibitory concentration 50 (IC50)): 4.92

Nc1ccn([C@@H]2O[C@H](CO)[C@@H](O)C2(F)F)c(=O)n1 [gemcitabine]
viability reduction [4]: 37%

CCCC(CCC)C(=O)O [magnesium valproate, 2-propylpentanoic acid]
patients with hyperacetylation in both histones [5]: six
patients with hyperacetylation of H3 [5]: nine
patients with hyperacetylation of H4 [5]: seven
patients with no changes in activity of histone deacetylases [6]: two
patients in whom activity of histone deacetylases diminished ([6]; two-tailed t test p<0.0264): 8 patients
tolerability [7]: well tolerated
patients with Grade 2 drowsiness ([7]; of 12 patients): nine
expression of p21 [8]: increases its expression

COc1cccc2c1C(=O)c1c(O)c3c(c(O)c1C2=O)C[C@@](O)(C(=O)CO)C[C@@H]3O[C@H]1C[C@H](N)[C@H](O)[C@H](C)O1 [adriamycin]
tumor re-growth after 3 weeks ([9]; weekly adriamycin alone, or composition for 7 days followed by weekly adriamycin, FIG. 9): the tumors grow again
antitumoral effect ([9]; weekly adriamycin, 3 weeks after treatment): almost complete antitumoral effect
viability reduction [4]: 27%

Source: patent US9186339B2, “Use of transcriptome modifying agents and chemotherapy or radiotherapy against cancer” (UNIVERSIDAD NACIONAL AUTONOMA DE MEXICO, priority 2005, dated 2015)
